Assay results published in patent US8476197B2, “Aminopropenoates as fungicides” (priority 2009, dated 2013).
Marks after values point to notes of the source that are not given here.

Details: pH 2.3

Structure (SMILES) | Log P
CCOC(=O)C(C#N)=C(NC(C)C(C)C)c1cccnc1-c1ccsc1 (centres unmarked) [Compound 1519] | 3.55
CCOC(=O)C(C#N)=C(NC(C)C(C)C)c1cccnc1-c1ccc(F)cc1 (centres unmarked) [Compound 1541] | 3.7
CCOC(=O)C(C#N)=C(NC(C)C(C)C)c1cccnc1Br (centres unmarked) [Compound 1545] | 3.27
CCOC(=O)C(C#N)=C(NC(C)C(C)C)c1cccnc1-c1cccc(Cl)c1 (centres unmarked) [Compound 1568] | 4.07
CCOC(=O)C(C#N)=C(NC(C)C(C)C)c1cccnc1-c1ccc(OC(F)(F)F)cc1 (centres unmarked) [Compound 1586] | 4.39
CCOC(=O)C(C#N)=C(Nc1ccccc1F)c1cccnc1Cl [Compound 1590] | 2.87
CCOC(=O)C(C#N)=C(Nc1ccn(C)c1SC)c1cccnc1Cl [Compound 1592] | 3.01^[c]; 3.01^[b]
CCOC(=O)C(C#N)=C(Nc1ccc(F)c(F)c1)c1cccnc1Cl [Compound 1597] | 3
CCOC(=O)C(C#N)=C(Nc1ccc(F)cc1F)c1cccnc1Cl [Compound 1600] | 2.95
C=CCOC(=O)C(C#N)=C(Nc1ccccc1SC)c1cccnc1Cl [Compound 1602] | 3.32^[c]; 3.32^[b]
CCOC(=O)C(C#N)=C(Nc1cc(F)ccc1F)c1cccnc1Cl [Compound 1609] | 2.95
CCOC(=O)C(C#N)=C(Nc1cccc(F)c1OC)c1cccnc1Cl [Compound 1611] | 3.13^[c]; 3.13^[b]

More lines, now with the values ahead:

Log P | Structure (SMILES)
3.08^[c]; 3.08^[b] | CCOC(=O)C(C#N)=C(NC(C)C1CC1)c1cccnc1OCc1ccccc1 (centres unmarked) [Compound 1570]
3 | CCOC(=O)C(C#N)=C(Nc1cccc(F)c1F)c1cccnc1Cl [Compound 1604]
3.26 | CCOC(=O)C(C#N)=C(Nc1cccc(F)c1C)c1cccnc1Cl [Compound 1610]

Same assay, conditions: pH 2.7

Structure (SMILES) | Log P
CC(C)C(C)NC(=C(C#N)C(=O)N(C)C1CC1)c1cccnc1Cl (centres unmarked) [Compound 1513] | 3.02^[a]
CC(C)C(C)NC(=C(C#N)C(=O)Nc1ccncc1)c1cccnc1Cl (centres unmarked) [Compound 1515] | 1.58^[a]
CC(C)C(C)NC(=C(C#N)C(=O)Nc1ccccn1)c1cccnc1Cl (centres unmarked) [Compound 1516] | 3.21^[a]
CC(C)C(C)NC(=C(C#N)C(=O)NCc1ccccn1)c1cccnc1Cl (centres unmarked) [Compound 1517] | 1.94^[a]
CC(C)C(C)NC(=C(C#N)C(=O)N1CCOCC1)c1cccnc1Cl (centres unmarked) [Compound 1518] | 2.58^[a]
CCOC(=O)C(C#N)=C(NC(C)c1ncc(C)s1)c1cccnc1Cl (centres unmarked) [Compound 1520] | 2.92^[a]
C#CC(NC(=C(C#N)C(=O)OCC)c1cccnc1Cl)C(C)C (centres unmarked) [Compound 1521] | 3.37^[a]
CCOC(=O)C(C#N)=C(NC(C)C(C)CC)c1cccnc1Cl (centres unmarked) [Compound 1525] | 3.76^[a]
CCOC(=O)C(C#N)=C(NC(C)c1ccccc1F)c1cccnc1Cl (centres unmarked) [Compound 1532] | 3.48^[a]
CCOC(=O)C(C#N)=C(NC(C)C1(C)CC1)c1cccnc1Cl (centres unmarked) [Compound 1533] | 3.46^[a]
CCOC(=O)C(C#N)=C(NC(C)c1nc(C)cs1)c1cccnc1Cl (centres unmarked) [Compound 1536] | 2.88^[a]
CCOC(=O)C(C#N)=C(NC(C)C(=O)OCc1ccccc1)c1cccnc1Cl (centres unmarked) [Compound 1539] | 3.53^[a]
CCOC(=O)C(C#N)=C(NCc1ccc(C)c(C)n1)c1cnn(C)c1Cl [Compound 1542] | 1.66^[a]
CCOC(=O)C(C#N)=C(NC1(C(=O)OCC)CCC1)c1cccnc1Cl [Compound 1551] | 3.17^[a]
CCOC(=O)C(C#N)=C(Nc1cccc2scnc12)c1cccnc1Cl [Compound 1553] | 2.61^[a]
CCOC(=O)C(C#N)=C(NCc1ncccc1C(F)(F)F)c1cccnc1Cl [Compound 1554] | 3^[a]
CCOC(=O)C(C#N)=C(Nc1cccc2nsnc12)c1cccnc1Cl [Compound 1556] | 3.17^[a]
CCOC(=O)C(C#N)=C(NC(C)c1c(Cl)cccc1Cl)c1cnn(C)c1Cl (centres unmarked) [Compound 1559] | 3.78^[a]
CCOC(=O)C(C#N)=C(NC(C)C(C)C)c1cn(C)nc1C(Cl)Cl (centres unmarked) [Compound 1562] | 3.46^[a]
CCOC(=O)C(C#N)=C(NC(C)c1nccs1)c1cn(C)nc1C(Cl)Cl (centres unmarked) [Compound 1564] | 2.75^[a]

Structure (SMILES) | Log P
CCOC(=O)C(C#N)=C(NC1CCC1)c1cn(C)nc1C(Cl)Cl [Compound 1566] | 3.09^[a]
CC(NC(=C(C#N)C(=O)O)c1cccnc1Cl)c1ccccn1 (centres unmarked) [Compound 1571] | 1.37^[a]
C=CCOC(=O)C(C#N)=C(NC(C)c1ccccn1)c1cccnc1Cl (centres unmarked) [Compound 1572] | 2.66^[a]
CCOC(=O)C(C#N)=C(NC(C)c1c(Cl)cccc1Cl)c1cn(C)nc1C(Cl)Cl (centres unmarked) [Compound 1574] | 3.94^[a]
CCOC(=O)C(C#N)=C(NCc1ccc(C)c(C)n1)c1cn(C)nc1C(Cl)Cl [Compound 1575] | 2.07^[a]
CCOC(=O)C(C#N)=C(NC(C)C(C)CC)c1cn(C)nc1C(Cl)Cl (centres unmarked) [Compound 1577] | 3.8^[a]
CCOC(=O)C(C#N)=C(NC(C)c1nccs1)c1cc(Cl)sc1Cl (centres unmarked) [Compound 1578] | 3.58^[a]
CCOC(=O)C(C#N)=C(NC(C)C(C)C)c1cc(Cl)sc1Cl (centres unmarked) [Compound 1580] | 4.68^[a]
CONC(=O)C(C#N)=C(NC(C)c1ccccn1)c1cccnc1Cl (centres unmarked) [Compound 1583] | 1.46^[a]
CCNC(=O)C(C#N)=C(NC(C)c1ccccn1)c1cccnc1Cl (centres unmarked) [Compound 1584] | 1.93^[a]
CCOC(=O)C(C#N)=C(NC(C)COC)c1cc(Cl)sc1Cl (centres unmarked) [Compound 1588] | 3.78^[a]
CCOC(=O)C(C#N)=C(NC(C)C1CCC1)c1cc(Cl)sc1Cl (centres unmarked) [Compound 1589] | 5.03^[a]
CC(C)C(C)NC(=C(C#N)C(=O)NCCF)c1cccnc1Cl (centres unmarked) [Compound 1593] | 2.76^[a]
COC(=O)CNC(=O)C(C#N)=C(NC(C)c1nccs1)c1cccnc1Cl (centres unmarked) [Compound 1596] | 1.9^[a]
CC(NC(=C(C#N)C(=O)N1CCCO1)c1cccnc1Cl)c1nccs1 (centres unmarked) [Compound 1599] | 1.9^[a]
CCOC(=O)C(C#N)=C(NC(C)C1CCCC1)c1cccnc1Cl (centres unmarked) [Compound 1606] | 3.9^[a]
CCOC(=O)C(C#N)=C(NC1(C)CCC1)c1cccnc1Cl [Compound 1607] | 3.11^[a]
CCOC(=O)C(C#N)=C(NC(C)c1ccn[nH]1)c1cccnc1Cl (centres unmarked) [Compound 1608] | 2.1^[a]
CC(C)C(C)NC(=C(C#N)C(=O)N1CCCO1)c1cccnc1Cl (centres unmarked) [Compound 1612] | 2.55^[a]
CC(C)C(C)NC(=C(C#N)C(=O)N1CCSC1C)c1cccnc1Cl (centres unmarked) [Compound 1615] | 3.6^[a]

Now from value to compound:

Log P | Structure (SMILES)
3.15^[a] | CCN(OC)C(=O)C(C#N)=C(NC(C)C(C)C)c1cccnc1Cl (centres unmarked) [Compound 1514]
3.87^[a] | CCOC(=O)C(C#N)=C(NC(C)[Si](C)(C)C)c1cccnc1Cl (centres unmarked) [Compound 1522]
3.73^[a] | CCOC(=O)C(C#N)=C(NC(C)c1c(Cl)cccc1Cl)c1cccnc1Cl (centres unmarked) [Compound 1523]
2.84^[a] | CCOC(=O)C(C#N)=C(NC(C)c1csc(C)n1)c1cccnc1Cl (centres unmarked) [Compound 1524]
1.91^[a] | CCOC(=O)C(C#N)=C(NCc1ccc(C)c(C)n1)c1cccnc1Cl [Compound 1526]
2.8^[a] | CCOC(=O)C(C#N)=C(NC(C)C(C)OC)c1cccnc1Cl (centres unmarked) [Compound 1527]
2.63^[a] | CCOC(=O)C(C#N)=C(NC(C)c1cncnc1C(F)(F)F)c1cccnc1Cl (centres unmarked) [Compound 1528]
2.35^[a] | CCOC(=O)C(C#N)=C(NC(C)c1cn2ccsc2n1)c1cccnc1Cl (centres unmarked) [Compound 1529]
3.89^[a] | CCOC(=O)C(C#N)=C(NC(C)c1ccccc1Br)c1cccnc1Cl (centres unmarked) [Compound 1530]
2.71^[a] | CCOC(=O)C(C#N)=C(NC(C)C1CCCO1)c1cccnc1Cl (centres unmarked) [Compound 1531]
3.96^[a] | CCOC(=O)C(C#N)=C(NC(C)c1c(C)cccc1C)c1cccnc1Cl (centres unmarked) [Compound 1534]
3.27^[a] | CCOC(=O)C(C#N)=C(NC(C)c1c(F)cccc1F)c1cccnc1Cl (centres unmarked) [Compound 1535]
2.68^[a] | CCOC(=O)C(C#N)=C(Nc1cccc2cn(C)nc12)c1cccnc1Cl [Compound 1537]
3.73^[a] | CCOC(=O)C(C#N)=C(NC1(c2ccccc2)CCC1)c1cccnc1Cl [Compound 1550]
3^[a] | CCOC(=O)C(C#N)=C(Nc1cccc2oc(C)nc12)c1cccnc1Cl [Compound 1555]
2.76^[a] | CCOC(=O)C(C#N)=C(NC(C)COC)c1cn(C)nc1C(Cl)Cl (centres unmarked) [Compound 1567]
3.9^[a] | CCOC(=O)C(C#N)=C(NC(C)C(=O)NC)c1cn(C)nc1C(Cl)Cl (centres unmarked) [Compound 1573]
2.98^[a] | CCOC(=O)C(C#N)=C(NC(C)C(C)OC)c1cn(C)nc1C(Cl)Cl (centres unmarked) [Compound 1576]
4.26^[a] | CCOC(=O)C(C#N)=C(NC1CCC1)c1cc(Cl)sc1Cl [Compound 1581]
4.43^[a] | CCOC(=O)C(C#N)=C(NC(C)C1CC1)c1cc(Cl)sc1Cl (centres unmarked) [Compound 1587]
2.76^[a] | CC(NC(=C(C#N)C(=O)N1CCSC1C)c1cccnc1Cl)c1nccs1 (centres unmarked) [Compound 1594]
1.84^[a] | CC(NC(=C(C#N)C(=O)N1CCOCC1)c1cccnc1Cl)c1nccs1 (centres unmarked) [Compound 1595]
1.8^[a] | CCONC(=O)C(C#N)=C(NC(C)c1nccs1)c1cccnc1Cl (centres unmarked) [Compound 1598]
4.02^[a] | CCOC(=O)C(C#N)=C(NC(C)C(C)OC)c1cc(Cl)sc1Cl (centres unmarked) [Compound 1603]
3^[a] | CCOC(=O)C(C#N)=C(NC1CCCc2cccnc21)c1cccnc1Cl (centres unmarked) [Compound 1605]
2.75^[a] | COC1(NC(=O)C(C#N)=C(NC(C)C(C)C)c2cccnc2Cl)CC1 (centres unmarked) [Compound 1613]
2.08^[a] | CC(C)C(C)NC(=C(C#N)C(=O)NN(C)C)c1cccnc1Cl (centres unmarked) [Compound 1614]

Same assay, conditions: pH 7.5

Structure (SMILES) | Log P
CCOC(=O)C(C#N)=C(NC(C)C(C)C)c1cccnc1-c1ccsc1 (centres unmarked) [Compound 1519] | 3.57
CCOC(=O)C(C#N)=C(NC(C)C(C)C)c1cccnc1-c1cccc(Cl)c1 (centres unmarked) [Compound 1568] | 4.09
CCOC(=O)C(C#N)=C(NC(C)C(C)C)c1cccnc1-c1ccc(OC(F)(F)F)cc1 (centres unmarked) [Compound 1586] | 4.41
CCOC(=O)C(C#N)=C(Nc1ccccc1F)c1cccnc1Cl [Compound 1590] | 2.85
CCOC(=O)C(C#N)=C(Nc1ccn(C)c1SC)c1cccnc1Cl [Compound 1592] | 3.01^[c]; 3.01^[b]
CCOC(=O)C(C#N)=C(Nc1ccc(F)c(F)c1)c1cccnc1Cl [Compound 1597] | 2.96
CCOC(=O)C(C#N)=C(Nc1ccc(F)cc1F)c1cccnc1Cl [Compound 1600] | 2.9
C=CCOC(=O)C(C#N)=C(Nc1ccccc1SC)c1cccnc1Cl [Compound 1602] | 3.32^[c]; 3.32^[b]
CCOC(=O)C(C#N)=C(Nc1cc(F)ccc1F)c1cccnc1Cl [Compound 1609] | 2.83
CCOC(=O)C(C#N)=C(Nc1cccc(F)c1OC)c1cccnc1Cl [Compound 1611] | 3.13^[c]; 3.13^[b]

Other lines, results leading:

Log P | Structure (SMILES)
3.08^[c]; 3.08^[b] | CCOC(=O)C(C#N)=C(NC(C)C1CC1)c1cccnc1OCc1ccccc1 (centres unmarked) [Compound 1570]
2.88 | CCOC(=O)C(C#N)=C(Nc1cccc(F)c1F)c1cccnc1Cl [Compound 1604]
3.24 | CCOC(=O)C(C#N)=C(Nc1cccc(F)c1C)c1cccnc1Cl [Compound 1610]
